# Experimental data from patent publication US12281363B2, “Methods for detecting antiviral-drug resistant virus” (Secretary of State for Health and Social Care, priority 2018, dated 2025).
# pIC50: −log10 of the molar value. Read-outs that look alike come from different tables or passages of the source.
# Test system: HSV-2
# Test: Plaque reduction assay, HSV-2 clinical isolates on Vero cells
# Assay type: cell-based
# Conditions: Human alphaherpesvirus 2, Vero
# Source text: Viral isolates were used to infect a sub-confluent monolayer of Vero cells at a concentration of 75 or 50 plaque forming units (PFU) per well for HSV-1 and HSV-2, respectively. […] CMC medium typically used to create a semisolid interface and prevents indiscrimate viral spreading. Other materials (e.g. agar) may also be used to create this interface.
# Cells were fixed with 10% formalin and stained with crystal violet before enumeration of the plaques (microscopic observation or use of fluorescent antibodies for detection is also suitable). The data obtained from these experiments were then expressed as percent inhibition of viral infectivity relative to the no drug control.
# Definitions of phenotypic drug susceptibility classification as sensitive or resistant were as follows: ACV, <3 μM or >40 μM; PCV, <10 μM or >40 μM; CDV, <24 μM or >30 μM; FOS, <250 μM or >400 μM; and ACV, <6.5 μM or >40 μM; PCV, <38 μM or >40 μM; FOS, <250 μM or >400 μM for HSV-1 and HSV-2, respectively. Any IC50 values falling in between these sensitive and resistant cut-offs were reported as intermediate resistance.
# The phenotype (i.e. reactivity to a drug) of the virus was characterised by the plaque reduction assay as described above. The present inventors have characterised the resistance-causing phenotype of a large number of TK and DNA pol mutations.
compound,measurement,setting,value
"Nc1nc2c(ncn2CCC(CO)CO)c(=O)[nH]1 [Penciclovir, penciclovir]",pIC50,"isolate HPG001, HSV-2 TK A125T (373G>A), read-out: Drug susceptibility (IC50 value)",5.09
same,pIC50,"isolate HPG001, HSV-2 TK A125T (373G>A), read-out: Drug susceptibility Penciclovir (PCV)",> 4.42
same,pIC50,"isolate HPG001, HSV-2 pol H714R (2141A>G), read-out: Drug susceptibility (IC50 value)",5.09
same,pIC50,"isolate HPG001, HSV-2 pol H714R (2141A>G), read-out: Drug susceptibility Penciclovir (PCV)",> 4.42
same,pIC50,"isolate HPG004, HSV-2 pol M494T (1481T>C), also pol S729N, read-out: Drug susceptibility (IC50 value)",< 3.80
same,pIC50,"isolate HPG004, HSV-2 pol M494T (1481T>C), also pol S729N, read-out: Drug susceptibility Penciclovir (PCV)",< 4.40
same,pIC50,"isolate HPG007, HSV-2 pol R628G (1882C>G), read-out: Drug susceptibility (IC50 value)",< 3.80
same,pIC50,"isolate HPG007, HSV-2 pol R628G (1882C>G), read-out: Drug susceptibility Penciclovir (PCV)",< 4.40
same,pIC50,"isolate HPG017, HSV-2 TK Q186H (558G>T), read-out: Drug susceptibility (IC50 value)",4.19
same,pIC50,"isolate HPG017, HSV-2 TK Q186H (558G>T), read-out: Drug susceptibility Penciclovir (PCV)",< 4.40
same,pIC50,"isolate HPG022, HSV-2 TK E213D (639A>C), read-out: Drug susceptibility (IC50 value)",4.57
same,pIC50,"isolate HPG022, HSV-2 TK E213D (639A>C), read-out: Drug susceptibility Penciclovir (PCV)",> 4.42
same,pIC50,"isolate HPG022, HSV-2 pol D174Y (520G>T), read-out: Drug susceptibility (IC50 value)",4.57
same,pIC50,"isolate HPG022, HSV-2 pol D174Y (520G>T), read-out: Drug susceptibility Penciclovir (PCV)",> 4.42
same,pIC50,"isolate HPG023, HSV-2 TK Q186H (558G>T), read-out: Drug susceptibility (IC50 value)",4.51
same,pIC50,"isolate HPG023, HSV-2 TK Q186H (558G>T), read-out: Drug susceptibility Penciclovir (PCV)",> 4.42
same,pIC50,"isolate HPG024, HSV-2 TK E213D (639A>C), read-out: Drug susceptibility (IC50 value)",5.04
same,pIC50,"isolate HPG024, HSV-2 TK E213D (639A>C), read-out: Drug susceptibility Penciclovir (PCV)",> 4.42
same,pIC50,"isolate HPG028, HSV-2 TK 98stop or A94fs (276delG, 278delG, 279delG, or 280delG), read-out: Drug susceptibility (IC50 value)",< 3.80
same,pIC50,"isolate HPG028, HSV-2 TK 98stop or A94fs (276delG, 278delG, 279delG, or 280delG), read-out: Drug susceptibility Penciclovir (PCV)",< 4.40
same,pIC50,"isolate HPG028, HSV-2 pol E776Q (2326G>C), also TK deletion (G) nt 276-280, read-out: Drug susceptibility (IC50 value)",< 3.80
same,pIC50,"isolate HPG028, HSV-2 pol E776Q (2326G>C), also TK deletion (G) nt 276-280, read-out: Drug susceptibility Penciclovir (PCV)",< 4.40
same,pIC50,"isolate HPG028, HSV-2 pol R775C, R775W (2323C>T; 2325C>G), also TK deletion (G) nt 276-280, read-out: Drug susceptibility (IC50 value)",< 3.80
same,pIC50,"isolate HPG028, HSV-2 pol R775C, R775W (2323C>T; 2325C>G), also TK deletion (G) nt 276-280, read-out: Drug susceptibility Penciclovir (PCV)",< 4.40
same,pIC50,"isolate HPG030, HSV-2 TK Q90stop (268C>T), read-out: Drug susceptibility (IC50 value)",< 3.80
same,pIC50,"isolate HPG030, HSV-2 TK Q90stop (268C>T), read-out: Drug susceptibility Penciclovir (PCV)",< 4.40
same,pIC50,"isolate HPG030, HSV-2 pol E761K (2281G>A), also TK Q90stop, read-out: Drug susceptibility (IC50 value)",< 3.80
same,pIC50,"isolate HPG030, HSV-2 pol E761K (2281G>A), also TK Q90stop, read-out: Drug susceptibility Penciclovir (PCV)",< 4.40
same,pIC50,"isolate HPG034, HSV-2 TK L313S (938A>C), read-out: Drug susceptibility Penciclovir (PCV)",< 4.40
same,pIC50,"isolate HPG036, HSV-2 TK E84K (250G>A), read-out: Drug susceptibility (IC50 value)",< 3.80
same,pIC50,"isolate HPG036, HSV-2 TK E84K (250G>A), read-out: Drug susceptibility Penciclovir (PCV)",< 4.40
same,pIC50,"isolate HPG038, HSV-2 TK R34C (100C>T), read-out: Drug susceptibility (IC50 value)",5.02
same,pIC50,"isolate HPG038, HSV-2 TK R34C (100C>T), read-out: Drug susceptibility Penciclovir (PCV)",> 4.42
same,pIC50,"isolate HPG044, HSV-2 TK M86L (256A>C), read-out: Drug susceptibility (IC50 value)",< 3.80
same,pIC50,"isolate HPG044, HSV-2 TK M86L (256A>C), read-out: Drug susceptibility Penciclovir (PCV)",< 4.40
same,pIC50,"isolate HPG048, HSV-2 TK Q90stop (268C>T), read-out: Drug susceptibility (IC50 value)",< 3.80
same,pIC50,"isolate HPG048, HSV-2 TK Q90stop (268C>T), read-out: Drug susceptibility Penciclovir (PCV)",< 4.40
same,pIC50,"isolate HPG048, HSV-2 pol E761K (2281G>A), also TK Q90stop, read-out: Drug susceptibility (IC50 value)",< 3.80
same,pIC50,"isolate HPG048, HSV-2 pol E761K (2281G>A), also TK Q90stop, read-out: Drug susceptibility Penciclovir (PCV)",< 4.40
same,pIC50,"isolate HPG057, HSV-2 TK 98stop or A94fs (276delG, 278delG, 279delG, or 280delG), read-out: Drug susceptibility (IC50 value)",< 3.80
same,pIC50,"isolate HPG057, HSV-2 TK 98stop or A94fs (276delG, 278delG, 279delG, or 280delG), read-out: Drug susceptibility Penciclovir (PCV)",< 4.40
same,pIC50,"isolate HPG058, HSV-2 TK 183stop or P154fs (458delC, 459delC, 460delC, or 461delC), read-out: Drug susceptibility (IC50 value)",< 3.80
same,pIC50,"isolate HPG058, HSV-2 TK 183stop or P154fs (458delC, 459delC, 460delC, or 461delC), read-out: Drug susceptibility Penciclovir (PCV)",< 4.40
same,pIC50,"read-out: Drug susceptibility (IC50 value), isolate HPG034, HSV-2 TK L313S (938A>C)",< 3.80
same,pIC50,"read-out: Drug susceptibility (IC50 value), isolate HPG056, HSV-2 pol M447L (1339A>C)",5.06
same,pIC50,"read-out: Drug susceptibility Penciclovir (PCV), isolate HPG056, HSV-2 pol M447L (1339A>C)",> 4.42
